# Data as given in PMC8252026, “Photochemical Probe Identification of a Small‐Molecule Inhibitor Binding Site in Hedgehog Acyltransferase (HHAT)” (Angewandte Chemie (International Ed. in English), 2021).
# Entries after “also recorded” stand apart in the source; their conditions may differ.
# Tests used:
# human HHAT [1] = target: T1, human HHAT (Homo sapiens, UniProt Q5VTY9); test: Acyl-cLIP assay, dose-response inhibition of purified HHAT; type: biochemical; conditions: for IC50 / HHAT inhibition (in words): purified HHAT; for IC50: real-time Acyl-cLIP, mean and 95 % CI, n=3; for HHAT inhibition (in words): Acyl-cLIP
# T1 construct: Full-length human HHAT (UniProt Q5VTY9); made in house
# T1 sequence (Q5VTY9 whole entry): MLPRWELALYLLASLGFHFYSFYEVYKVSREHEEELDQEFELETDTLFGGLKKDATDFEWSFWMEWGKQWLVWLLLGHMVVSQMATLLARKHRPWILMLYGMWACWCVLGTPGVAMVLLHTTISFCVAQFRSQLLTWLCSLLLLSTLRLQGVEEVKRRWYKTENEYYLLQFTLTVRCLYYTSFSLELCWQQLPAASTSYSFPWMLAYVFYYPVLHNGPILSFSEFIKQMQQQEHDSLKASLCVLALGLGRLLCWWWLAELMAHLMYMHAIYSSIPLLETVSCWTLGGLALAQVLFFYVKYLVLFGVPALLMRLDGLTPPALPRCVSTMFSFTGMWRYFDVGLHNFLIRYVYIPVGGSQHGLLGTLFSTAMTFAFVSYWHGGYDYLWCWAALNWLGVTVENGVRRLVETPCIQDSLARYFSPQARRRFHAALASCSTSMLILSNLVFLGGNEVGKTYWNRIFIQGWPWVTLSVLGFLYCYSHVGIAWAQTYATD
# Experimental: We recently reported the acylation‐coupled lipophilic induction of polarization (Acyl‐cLIP) assay, a facile and universally applicable method to monitor enzymes processing lipid post‐translational modifications which uses the hydrophobicity increase on lipidation to drive a polarized fluorescence readout. ^[15] Dose‐response analysis of inhibition of purified HHAT was conducted using real‐time Acyl‐cLIP analysis (Table 1).
# AMBIC (ammonium bicarbonate); CDI (1,1’-carbonyldiimidazole); DCM (dichloromethane); DDM (n-dodecyl-β-D-maltopyranoside); DIPEA (N,N-diisopropylethylamine); DMF (dimethylformamide); DTT (dithiothreitol); EDTA (ethylenediaminetetraacetic acid); FAM (5/6-carboxyfluorescein); HEPES (4-(2-hydroxyethyl)-1-piperazineethanesulfonic acid); HOBt (hydroxybenzotriazole); TBME (tert-butyl methyl ether); TBTA (tris[(1-benzyl-1H-1,2,3-triazol-4-yl)methyl]amine); TCEP (tris(2-carboxyethyl)phosphine hydrochloride); TEA (triethylamine); TFA (trifluoroacetic acid); THF (tetrahydrofuran); TRIS (tris(hydroxymethyl)aminomethane).
# All reagents were purchased from commercial sources (Sigma-Aldrich, Fisher Scientific, Acros Organics, Novabiochem) and used without further purification.
# Pal-CoA (Sigma Aldrich) was stored in NaOAc (0.1 M, pH 6.0) at -80 °C. RUSKI-201 (1) was synthesised as previously described.[1b] The peptide comprising of residues 24-43 of SHH (residues 1-10 of the mature protein) labelled with 5/6-carboxyfluorescein (SHH-FAM) was prepared as previously described.
# Mixtures described as % represent v/v unless otherwise stated.
# Biological and Biochemical Methods
# Full-length human HHAT (UniProt Q5VTY9) C -terminally fused with a 1D4 epitope tag was expressed and purified via antibody purification with Rho -1D4 antibody (University of British Columbia) coupled to CNBr-activated sepharose beads (GE Healthcare) as previously described.[9] Purified HHAT 0.1-0.2 mg/mL in storage buffer (10 mM HEPES, 150 mM NaCl, 5% glycerol, 0.025% (w/v) DDM, 0.0006% (w/v) cholesterol-hemisuccinate, pH 7.5) was flash-frozen in liquid nitrogen and stored at -80 °C.
# The Acylation-coupled Lipophilic Induction of Polarisation (Acyl -cLIP) was performed as previously described,[9] using Rho-1D4 antibody purified HHAT. Briefly, HHAT was diluted to 45 µg/mL in solubilisation buffer (20 mM HEPES, 350 mM NaCl, 1% (w/v) DDM, 5% glycerol, pH 7.3) added to SHH-FAM (2 µM) in reaction buffer (100 mM MES, 20 mM NaCl, 1 mM DTT, 1 mM TCEP, 0.1% (w/v) BSA, pH 6.5) in a 1:10 (v/v) ratio, respectively. The HHAT/SHH-FAM solution (12 µL/well) was dispensed into a black 384-well plate (Corning, 3575). The reaction was initiated by addition of Pal-CoA (7.5 µM) in reaction buffer (8 µL/well), and fluorescence anisotropy measured every 1 min for 1 h on an EnVision Xcite 2104 (PerkinElmer).
# Measurement used a FITC FP D505fp mirror module, FITC FP 480 nm excitation filter (30 nm bandwidth), FITC FP P-pol 535 nm first emission filter (40 nm bandwidth), and FITC FP S-pol […]
# (§1) 535 nm second emission filter (40 nm bandwidth), measurement height = 9.52 mm, 8 flashes/well, PMT gain = 319, and G-factor = 1.09. Fluorescence anisotropy was calculated […]
# (§2) Where S is signal in the S-channel, P is signal in the P-channel, and G is the G-factor.
# (§3) Assay data were evaluated using Microsoft Excel 2013 and GraphPad Prism 5.0. Initial rate constants were determined by linear regression, normalized to DMSO negative controls and background corrected to positive controls with solubilization buffer instead of HHAT. The half-maximal inhibitory concentration (IC 50) was calculated using a 4-parameter sigmoidal dose-response curve fit. Determination of the mechanism of inhibition of IMP -1575 relative to Pal-CoA was performed by fitting equation 2 for a mixed model of inhibition[10] using nonlinear […]
# Where v is the observed rate of reaction, Vmax is the maximum rate, [I] is the inhibitor concentration, [S] is the substrate concentration, Km is the substrate concentration at ½ Vmax, […]
# [2] = Photoactivation analysis by LC/MS under UV irradiation (365 nm); type: physicochemical; conditions: 100 μM in water on ice
# human HHAT [3] = target: T1, human HHAT; test: Photocrosslinking to purified HHAT, CalFluor-647 CuAAC and in-gel fluorescence; type: binding; conditions: for crosslinking of probe to HHAT (in-gel fluorescence): probe 10 μM, purified HHAT, UV 365 nm 1 min
# Source text: These new insights led to design of photocrosslinking chemical probes 10 and 11 to investigate the small‐molecule binding site in HHAT (Figure 2 A). In probe 10 the secondary amine moiety was exchanged for a diazirine group, and the terminal alkyl chain replaced with an alkyne; probe 11 contains an additional carbon between the carbonyl and diazirine. The diazirine allows photoactivated chemical crosslinking to nearby residues in HHAT, with the alkyne allowing biorthogonal functionalization via copper(I)‐catalyzed azide‐alkyne cycloaddition (CuAAC, “click chemistry”) for subsequent analysis. […] The sidechains were synthesized and coupled to 2 (Scheme S4,5). […] Protein crosslinking was next investigated through CuAAC functionalization with a fluorophore and in‐gel fluorescence readout. As an integral membrane protein, HHAT presents substantial challenges in sample handling and cannot be precipitated to remove excess fluorophore which otherwise binds non‐specifically (data not shown). Fluorogenic azide CalFluor‐647 (Figure S8) ^[18] was therefore used to reduce background fluorescence from dye that had not reacted with alkyne probe. 10 or 11 (10 μM) were incubated with purified HHAT with or without UV irradiation (1 min). […]
# Molecule for alignment. Compounds 1-9 (R)-enantiomers and IC50 values from the Acyl-cLIP assay were used as a Training Set . For the purpose of analysis of weakly active inhibitors, […]
# Conformation Hunt was set to Normal, Alignment set to Normal, and Build Model set to Field
# QSAR. Probes 10 and 11 were used as a Prediction Set .
# Photoactivation Analysis by LC/MS
# A solution of 10 or 11 (100 μM) in water was cooled on ice and irradiated using a custom-made UV light source (365 nm, 25 mW/cm2) for the indicated times. […]
# All steps were performed in the dark in a cold room (4 °C), until specified otherwise. […] The gel was run until the loading dye had eluted from the gel (typically 55 min at 200 V) and the in-gel fluorescence […]
# recorded (Excitation: 635 nm Emission: 669 nm) on a Typhoon FLA 9500 (GE Healthcare). […]
# HHAT = target: HHAT; set-up: method as in PMID 23416332; conditions: reported as noncompetitive with Pal-CoA; cited from earlier work
# human HHAT [4] = target: T1, human HHAT; test: Acyl-cLIP inhibition kinetics at varying Pal-CoA concentrations (mixed model of inhibition); type: biochemical
# Experimental: IMP‐1575 (50–0.023 μM) was therefore analyzed for effects on HHAT kinetics at varying Pal‐CoA concentrations (50–0.19 μM, Figure 3 B,C).
# as §1, §2, §3
# Where v is the observed rate of reaction, Vmax is the maximum rate, [I] is the inhibitor concentration, [S] is the substrate concentration, Km is the substrate concentration at ½ Vmax, Ki is the affinity of the inhibitor for the free enzyme, and α is the ratio of the affinity of the inhibitor for the enzyme-substrate complex (Ki’) to Ki (typically noted as Ki’/Ki).
# Density-Functional Theory Modelling
# Density-functional theory (DFT) predictions were performed using Gaussian 16 [11] and Orca (version 4.0.1.2).[12] The compound 6 structure was initially created using Avogadro software (1.2.0) and geometry -optimised using an MMFF94s force field. Avogadro was also employed to explore conformers of the structure using a “systematic rotor search”. DFT geometry optimisations were initially carried out on the MMFF94s optimised structures using either the 6-31G basis set (for the B3LYP and M062X functionals) or the def2/SVP basis set (for the CAM-B3LYP functional). Structures were then optimised with a higher -level basis set (6-311++G(d,p), for the B3LYP and M062X functional, and def2/TZVP for the CAM-B3LYP functional). […]
SMILES,IC50 (human HHAT [1]),HHAT inhibition (in words) (human HHAT [1]),also measured
C#CCCC1(CCC(=O)N2CCc3sccc3C2c2cccc(C)n2)N=N1 (stereo not shown) [Compound 11],2.4 µM,–,activation half-life [2]: 0.533 min; crosslinking of probe to HHAT (in-gel fluorescence) (human HHAT [3]): crosslinking of probe 11 to HHAT promoted by UV irradiation; also recorded: enhanced labelling with UV irradiation
Cc1cccc(C2c3ccsc3CCN2C(=O)NCCC(C)C)n1 (stereo not shown) [Compound 9],~50 µM,substantially reduced activity,–
C#CCCC1(CC(=O)N2CCc3sccc3C2c2cccc(C)n2)N=N1 (stereo not shown) [Compound 10],16 µM,–,activation half-life [2]: 3.3 min; crosslinking of probe to HHAT (in-gel fluorescence) (human HHAT [3]): minimal crosslinking; also recorded: minimal labelling
"Cc1cccc(C2c3ccsc3CCN2C(=O)CNCC(C)C)n1 (single isomer, unassigned; (-)) [(-)-6]",> 50 µM,no HHAT inhibition,–
CC[C@H](C)CNCC(=O)N1CCc2sccc2C1c1cccc(C)n1 (stereo partly shown) [Compound 4],3.7 µM,–,fold reduced potency compared to 1 (human HHAT [1]; from Acyl-cLIP IC50): ≈ 2 fold
CCC(C)CNCC(=O)N1CCc2sccc2C1COc1cccc(C)c1 (stereo not shown) [RUSKI-43],–,–,Ki (HHAT): 6.9 µM
Cc1cccc(C2c3ccsc3CCN2C(=O)CN(C)CC(C)C)n1 (stereo not shown) [Compound 7],~25 µM,substantially reduced activity,–
Cc1cccc(C2c3ccsc3CCN2C(=O)CNCCC(C)C)n1 (stereo not shown) [Compound 5],5.8 µM,–,–
Cc1cccc(C2NCCc3sccc32)n1 (stereo not shown) [Compound 2],> 50 µM,no inhibition,–

# Second part, led by results:
IC50 (human HHAT [1]),HHAT inhibition (in words) (human HHAT [1]),SMILES,also measured
0.75 µM,–,Cc1cccc([C@H]2c3ccsc3CCN2C(=O)CNCC(C)C)n1 [(+)-6],"Ki (human HHAT [4]; competitive with respect to Pal-CoA, IMP-1575 50-0.023 μM, Pal-CoA 50-0.19 μM, mixed model fit): 0.038 µM; mode of inhibition with respect to Pal-CoA (human HHAT [4]; mixed model analysis): competitive; α (mixed model equation for inhibition) (human HHAT [4]; ratio Ki'/Ki, with respect to Pal-CoA): 470; potency compared to (+/-)-6 (human HHAT [1]; from Acyl-cLIP IC50): two‐fold increased potency; competition of probe 11 crosslinking to HHAT (human HHAT [3]; 40-fold excess IMP-1575 (400 μM) vs probe 11 (10 μM)): reduced crosslinking to near background levels"
13 µM,–,CC(=O)N1CCc2sccc2C1c1cccc(C)n1 (stereo not shown) [Compound 3],–
1.3 µM,–,Cc1cccc(C2c3ccsc3CCN2C(=O)CNCC(C)C)n1 (stereo not shown) [Compound 6],–
~50 µM,substantially reduced activity,Cc1cccc(C2c3ccsc3CCN2C(=O)CN2CCCC(C)C2)n1 (stereo not shown) [Compound 8],–
